Key:
[1] = system: methicillin-susceptible S. aureus (SH1000); assay: microbe, parasite or virus in culture; format: cell-based; conditions: SH1000; […] DMSO carrier at highest test concentration (250 μM)
[2] = system: community-acquired methicillin-resistant S. aureus (CA-MRSA; USA 300-0114); assay: microbe, parasite or virus in culture; format: cell-based; conditions: USA 300-0114
[3] = system: hospital-acquired methicillin-resistant S. aureus (HA-MRSA; ATCC 33591); assay: microbe, parasite or virus in culture; format: cell-based; conditions: ATCC 33591
[4] = system: Enterococcus faecalis (OG1RF); assay: microbe, parasite or virus in culture; format: cell-based; conditions: OG1RF
[5] = system: Escherichia coli (MC4100); assay: microbe, parasite or virus in culture; format: cell-based; conditions: MC4100
[6] = system: Pseudomonas aeruginosa (PAO1); assay: microbe, parasite or virus in culture; format: cell-based; conditions: P. aeruginosa PAO1
red blood cell (RBC) = assay: Red blood cell (RBC) lysis (Lysis20); conditions: RBC lysis as proxy for toxicity

Compound	Minimum Inhibitory Concentration MSSA [1]	Minimum Inhibitory Concentration CA-MRSA [2]	Minimum Inhibitory Concentration HA-MRSA [3]	Minimum Inhibitory Concentration E. faecalis [4]	Minimum Inhibitory Concentration E. coli [5]	Minimum Inhibitory Concentration Pa [6]	Lys20 (red blood cell (RBC))
CCCCCCCCCCCCCC[P+](CC[P+](CCCCCCCCCCCCCC)(c1ccccc1)c1ccccc1)(CC[P+](CCCCCCCCCCCCCC)(c1ccccc1)c1ccccc1)c1ccccc1 [P2P2P-14,14,14, ((phenyl(tetradecyl)phosphoniodiyl)bis(ethane-2,1-diyl))bis(diphenyl(tetradecyl)phosphonium)]	16 µM	16 µM	32 µM	250 µM	250 µM	>250 µM	1 µM
octadecyltriphenylphosphonium [TPP-18]	4 µM	8 µM	8 µM	16 µM	125 µM	125 µM	4 µM

Source: patent US20250034184A1, “QUATERNARY PHOSPHONIUM COMPOUNDS AND USES THEREOF” (Emory University, priority 2021, published 2025)
